Assay results as given in ChEMBL document CHEMBL4351016 (Eur J Med Chem, 2019).
Each block holds one molecule with its values, some of them ahead of it. Activity calls are given as the source filed them. The rule behind the calls is not given here.

What was measured:
[1] = test system: PC-3; test: Antiproliferative activity against AR-negative human PC3 cells assessed as growth inhibition after 72 hrs by resazurin dye based fluorescence assay; assay type: functional; conditions: PC-3, 72 h
[2] = test system: CWR22R; test: Antiproliferative activity against AR-positive human 22Rv1 cells harboring ARE14 construct assessed as growth inhibition after 72 hrs by resazurin dye based fluorescence assay; assay type: functional; conditions: 22Rv1, 72 h
[3] = test system: LNCaP C4-2; test: Antiproliferative activity against AR-positive human C4-2 cells assessed as growth inhibition after 72 hrs by resazurin dye based fluorescence assay; assay type: functional; conditions: LNCaP C4-2, 72 h
[4] = test system: VCaP; test: Antiproliferative activity against AR-positive human VCaP cells assessed as growth inhibition after 72 hrs by resazurin dye based fluorescence assay; assay type: functional
[5] = test system: CWR22R; test: Effect on AR-V7 protein expression in AR-positive human 22Rv1 cells harboring ARE14 construct at 5 uM after 24 hrs by immunoblot analysis; assay type: functional, cell-based
[6] = test system: BJ; test: Antiproliferative activity against human BJ cells assessed as growth inhibition after 24 hrs by resazurin dye based fluorescence assay; assay type: functional
[7] = molecular target: T1, Androgen receptor (Homo sapiens) (UniProt P10275); test: Inhibition of AR transcriptional activity in AR-positive human 22Rv1 cells harboring ARE14 construct assessed as downregulation of NKX3.1 protein expression at 5 uM after 24 hrs by immunoblot analysis
T1 sequence (whole entry): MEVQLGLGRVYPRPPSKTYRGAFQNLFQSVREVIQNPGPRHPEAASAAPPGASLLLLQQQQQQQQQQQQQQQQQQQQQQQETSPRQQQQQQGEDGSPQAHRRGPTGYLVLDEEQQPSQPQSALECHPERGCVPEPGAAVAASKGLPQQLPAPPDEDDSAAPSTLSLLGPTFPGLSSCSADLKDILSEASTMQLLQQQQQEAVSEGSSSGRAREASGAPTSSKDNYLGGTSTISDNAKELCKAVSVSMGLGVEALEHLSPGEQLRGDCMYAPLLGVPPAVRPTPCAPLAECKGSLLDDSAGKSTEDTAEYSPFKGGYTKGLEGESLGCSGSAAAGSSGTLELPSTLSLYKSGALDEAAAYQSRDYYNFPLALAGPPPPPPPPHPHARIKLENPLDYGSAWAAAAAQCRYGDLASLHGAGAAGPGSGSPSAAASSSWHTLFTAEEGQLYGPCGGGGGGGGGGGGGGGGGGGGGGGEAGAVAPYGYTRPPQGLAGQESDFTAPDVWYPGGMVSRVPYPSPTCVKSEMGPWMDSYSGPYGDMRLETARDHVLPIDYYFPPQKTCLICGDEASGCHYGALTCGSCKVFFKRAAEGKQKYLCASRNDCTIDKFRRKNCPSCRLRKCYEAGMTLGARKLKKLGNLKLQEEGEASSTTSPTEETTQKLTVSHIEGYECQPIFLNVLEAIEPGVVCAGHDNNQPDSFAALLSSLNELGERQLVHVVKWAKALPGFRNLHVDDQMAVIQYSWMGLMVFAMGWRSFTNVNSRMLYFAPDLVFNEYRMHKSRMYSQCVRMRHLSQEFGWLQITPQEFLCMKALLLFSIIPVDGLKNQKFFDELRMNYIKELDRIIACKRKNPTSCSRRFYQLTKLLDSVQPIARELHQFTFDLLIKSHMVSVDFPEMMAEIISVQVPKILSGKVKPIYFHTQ

[8] = test system: CWR22R; test: Antiproliferative activity against AR-positive human 22Rv1 cells harboring ARE14 construct assessed as growth inhibition after 24 hrs by resazurin dye based fluorescence assay; assay type: functional; conditions: 22Rv1, 24 h
[9] = molecular target: T1, Androgen receptor (Homo sapiens); test: Inhibition of AR transcriptional activity in AR-positive human 22Rv1 cells harboring ARE14 construct assessed as decrease in PSA protein expression at 5 uM after 24 hrs by immunoblot analysis
[10] = test system: LNCaP C4-2; test: Antiproliferative activity against AR-positive human C4-2 cells assessed as cell viability at 40 uM after 72 hrs by resazurin dye based fluorescence assay; assay type: functional; conditions: LNCaP C4-2, 72 h, read-out: Activity
[11] = test system: VCaP; test: Antiproliferative activity against AR-positive human VCaP cells assessed as cell viability at 40 uM after 72 hrs by resazurin dye based fluorescence assay; assay type: functional; conditions: read-out: Activity

SMILES: CC(=O)O[C@H]1CC[C@@]2(C)C(=CC[C@@H]3[C@@H]2CC[C@]2(C)c4c(C)nc5nc6cc(Cl)ccc6n5c4C[C@@H]32)C1
GI50 [1]: > 50 µM
GI50 [4]: > 50 µM
Activity [5]: inactive
GI50 [2]: > 50 µM
GI50 [3]: > 50 µM
GI50 [6]: > 50 µM
NKX3.1 protein downregulation (active/not active) [7]: inactive
GI50 [8]: > 50 µM
PSA protein decrease (active/not active) [9]: inactive

SMILES: COc1ccc2c(C)c3c(nc2n1)C[C@H]1[C@@H]2CC=C4C[C@@H](O)CC[C@]4(C)[C@H]2CC[C@]31C
GI50 [1]: > 50 µM
GI50 [4]: > 50 µM
Activity [5]: inactive
GI50 [2]: 4.3 µM
GI50 [3]: 1.1 µM
GI50 [6]: > 50 µM
NKX3.1 protein downregulation (active/not active) [7]: Active
GI50 [8]: > 50 µM
PSA protein decrease (active/not active) [9]: Active

SMILES: CC(=O)O[C@H]1CC[C@@]2(C)C(=CC[C@@H]3[C@@H]2CC[C@]2(C)c4c(C)nc5c(c4C[C@@H]32)c2ccccc2n5C)C1
GI50 [1]: > 50 µM
GI50 [4]: > 50 µM
Activity [5]: inactive
GI50 [2]: > 50 µM
GI50 [3]: > 50 µM
GI50 [6]: > 50 µM
NKX3.1 protein downregulation (active/not active) [7]: inactive
GI50 [8]: > 50 µM
PSA protein decrease (active/not active) [9]: inactive

SMILES: CC(=O)O[C@H]1CC[C@@]2(C)C(=CC[C@@H]3[C@@H]2CC[C@]2(C)c4c(C)nc5nc6ccc(Cl)cc6n5c4C[C@@H]32)C1
GI50 [1]: > 50 µM
GI50 [4]: > 50 µM
Activity [5]: inactive
GI50 [2]: 29.9 µM
GI50 [3]: 24.4 µM
GI50 [6]: 50 µM
NKX3.1 protein downregulation (active/not active) [7]: inactive
GI50 [8]: > 50 µM
PSA protein decrease (active/not active) [9]: inactive

SMILES: CC(=O)O[C@H]1CC[C@@]2(C)C(=CC[C@@H]3[C@@H]2CC[C@@]2(C)[C@H]3C[C@@H]3C(=O)[C@@]2(C)Nc2nc4ccc(Cl)cc4n23)C1
GI50 [1]: > 50 µM
GI50 [2]: > 50 µM
GI50 [3]: > 50 µM

SMILES: CC(=O)O[C@H]1CC[C@@]2(C)C(=CC[C@@H]3[C@@H]2CC[C@@]2(C)[C@H]3C[C@@H]3C(=O)[C@@]2(C)Nc2nc4ccccc4n23)C1
GI50 [1]: > 50 µM
GI50 [4]: > 50 µM
Activity [5]: inactive
GI50 [2]: 5.4 µM
GI50 [3]: 18 µM
GI50 [6]: > 50 µM
NKX3.1 protein downregulation (active/not active) [7]: inactive
GI50 [8]: > 50 µM
PSA protein decrease (active/not active) [9]: inactive

SMILES: CC(=O)O[C@H]1CC[C@@]2(C)C(=CC[C@@H]3[C@@H]2CC[C@@]2(C)[C@H]3C[C@@H]3C(=O)[C@@]2(C)Nc2nc4cc(C)c(C)cc4n23)C1
GI50 [1]: > 50 µM
GI50 [4]: > 50 µM
Activity [5]: inactive
GI50 [2]: 7.4 µM
GI50 [3]: > 50 µM
GI50 [6]: > 50 µM
NKX3.1 protein downregulation (active/not active) [7]: inactive
GI50 [8]: > 50 µM
PSA protein decrease (active/not active) [9]: inactive

Continued, in another order:

GI50 [1]: > 50 µM
GI50 [3]: > 50 µM
SMILES: CC(=O)O[C@H]1CC[C@@]2(C)C(=CC[C@@H]3[C@@H]2CC[C@@]2(C)[C@H]3C[C@@H]3C(=O)[C@@]2(C)Nc2nc4cc(Cl)ccc4n23)C1
GI50 [2]: > 50 µM

GI50 [1]: 7.8 µM
GI50 [4]: 20.7 µM
GI50 [3]: 12.7 µM
NKX3.1 protein downregulation (active/not active) [7]: Active
SMILES: Cc1nc(N2CCc3ccccc3C2)nc2c1[C@@]1(C)CC[C@H]3[C@@H](CC=C4C[C@@H](O)CC[C@@]43C)[C@@H]1C2
Activity [5]: inactive
GI50 [2]: 12.4 µM
GI50 [6]: 22.5 µM
GI50 [8]: > 50 µM

GI50 [1]: 29.5 µM
GI50 [4]: 20.3 µM
GI50 [3]: 11.9 µM
NKX3.1 protein downregulation (active/not active) [7]: inactive
PSA protein decrease (active/not active) [9]: inactive
SMILES: CC(=O)O[C@H]1CC[C@@]2(C)C(=CC[C@H]3[C@@H]4C[C@@H](Nc5nc6ccccc6[nH]5)[C@@H](C(C)=O)[C@@]4(C)CC[C@@H]32)C1
Activity [5]: inactive
GI50 [2]: 6.2 µM
GI50 [6]: 48.3 µM
GI50 [8]: > 50 µM

GI50 [1]: 37.7 µM
GI50 [4]: > 40 µM
GI50 [3]: > 40 µM
SMILES: C[C@]12CC[C@H](O)CC1=CC[C@@H]1[C@@H]2CC[C@]2(C)C(n3cnc4ccccc43)=CC[C@@H]12 [GALETERONE]
GI50 [2]: 37.8 µM
viability at 40 µM [10]: 74.3%
viability at 40 µM [11]: 57.2%

GI50 [1]: > 50 µM
GI50 [4]: > 50 µM
GI50 [3]: 34.1 µM
NKX3.1 protein downregulation (active/not active) [7]: inactive
PSA protein decrease (active/not active) [9]: inactive
SMILES: CC(=O)O[C@H]1CC[C@@]2(C)C(=CC[C@H]3[C@@H]4C[C@@H](Nc5nc6ccccc6s5)[C@H](C(C)=O)[C@@]4(C)CC[C@@H]32)C1
Activity [5]: inactive
GI50 [2]: 13.2 µM
GI50 [6]: > 50 µM
GI50 [8]: > 50 µM

GI50 [1]: > 50 µM
GI50 [4]: > 50 µM
GI50 [3]: 22.5 µM
NKX3.1 protein downregulation (active/not active) [7]: inactive
PSA protein decrease (active/not active) [9]: inactive
SMILES: CC(=O)O[C@H]1CC[C@@]2(C)C(=CC[C@@H]3[C@@H]2CC[C@]2(C)c4c(C)nc5nc6ccccc6n5c4C[C@@H]32)C1
Activity [5]: inactive
GI50 [2]: 7.2 µM
GI50 [6]: 44.9 µM
GI50 [8]: > 50 µM

GI50 [1]: > 50 µM
GI50 [4]: > 50 µM
GI50 [3]: > 50 µM
NKX3.1 protein downregulation (active/not active) [7]: inactive
PSA protein decrease (active/not active) [9]: inactive
SMILES: CC(=O)O[C@H]1CC[C@@]2(C)C(=CC[C@@H]3[C@@H]2CC[C@]2(C)c4c(C)nc5nccn5c4C[C@@H]32)C1
Activity [5]: inactive
GI50 [2]: 26.3 µM
GI50 [6]: > 50 µM
GI50 [8]: > 50 µM

GI50 [1]: > 50 µM
GI50 [4]: > 50 µM
GI50 [3]: 36.5 µM
NKX3.1 protein downregulation (active/not active) [7]: inactive
PSA protein decrease (active/not active) [9]: inactive
SMILES: CC(=O)O[C@H]1CC[C@@]2(C)C(=CC[C@@H]3[C@@H]2CC[C@]2(C)c4c(C)nc5nc6cc(C)c(C)cc6n5c4C[C@@H]32)C1
Activity [5]: inactive
GI50 [2]: 40 µM
GI50 [6]: > 50 µM
GI50 [8]: > 50 µM

GI50 [1]: 11.5 µM
GI50 [4]: > 50 µM
GI50 [3]: > 50 µM
NKX3.1 protein downregulation (active/not active) [7]: inactive
PSA protein decrease (active/not active) [9]: inactive
SMILES: C[C@]12CC[C@H](O)CC1=CC[C@@H]1[C@@H]2CC[C@]2(C)/C(=N/n3cnc4ccccc43)CC[C@@H]12
Activity [5]: inactive
GI50 [2]: > 50 µM
GI50 [6]: > 50 µM
GI50 [8]: > 50 µM
